Reference: patent publication US4062934A, “X-ray contrast media” (Laboratoires Andre Guerbet, priority 1975, dated 1977)

Tests used:
[1] = Osmolality of aqueous solutions containing 28% iodine; format: physicochemical; conditions: aqueous solution
mice = test: LD50, I.V., in mice; format: in vivo; conditions: aqueous solution containing 28% iodine
[2] = Neurotoxicity, intra-cisternal injection in rats (technique according to E. Melartin); conditions: in vivo, at 50 mg I/rat, read-out: Neurotoxicity: death rate, intra-cisternal injection in rats
Text: *Technique according to E. Melartin (Investigative Radiology, 1970, 5, 1,

[3] = Neurotoxicity, intra-cerebral injection in mice (technique according to Haley and MacCornick); conditions: mouse, in vivo, 700 mg/kg, at 700 mg I/kg, read-out: Neurotoxicity: death rate, intra-cerebral injection in mice
Text: **Technique according to Haley and MacCornick (British Journal

[4] = Viscosity of aqueous solution; format: physicochemical; conditions: 25 g iodine per 100 ml, 37° C
Procedure: The product is dissolved in water at a concentration of 25 g iodine per 100 ml. The solution has a viscosity of 7.4 centipoises at 37° C.

In the case of `CC(=O)N(C)c1c(I)c(NC(=O)[C@H](O)[C@@H](O)[C@H](O)[C@H](O)CO)c(I)c(C(=O)NCCNC(=O)c2c(I)c(NC(=O)[C@H](O)[C@@H](O)[C@H](O)[C@H](O)CO)c(I)c(N(C)C(C)=O)c2I)c1I` [I, 1,2-N,N'-bis(2,4,6-triiodo-3-N-methyl-N-acetylamino-5-N-gluconylamino-benzoyl)-diamino-ethane], the Osmolality [1] is reported as 200 mosm/kg, the “LD50, I.V., in mice” value (mice) is reported as 15 g I/kg and the mortality [2] is reported as 0%. For the same molecule, the mortality [3] was 0% and the viscosity [4] was 7.4 centipoises.
With `CC(=O)N(C)c1c(I)c(NC(=O)[C@H](O)[C@@H](O)[C@H](O)[C@H](O)CO)c(I)c(C(=O)NNC(=O)c2c(I)c(NC(=O)[C@H](O)[C@@H](O)[C@H](O)[C@H](O)CO)c(I)c(N(C)C(C)=O)c2I)c1I` [II, N,N'-bis(2,4,6-triiodo-3-N-methyl-N-acetylamino-5-N-gluconylamino-benzoyl)hydrazide] the Osmolality [1] was 204 mosm/kg and the “LD50, I.V., in mice” value (mice) was 6 g I/kg.
For `CC(=O)N(C)c1c(I)c(NC(=O)[C@H](O)[C@@H](O)[C@H](O)[C@H](O)CO)c(I)c(C(=O)N(C)N(C)C(=O)c2c(I)c(NC(=O)[C@H](O)[C@@H](O)[C@H](O)[C@H](O)CO)c(I)c(N(C)C(C)=O)c2I)c1I` [III, N,N'-bis(2,4,6-triiodo-3-N-methyl-N-acetylamino-5-N-gluconylamino-benzoyl)dimethyl hydrazide], the Osmolality [1] was 140 mosm/kg and the “LD50, I.V., in mice” value (mice) was 9 g I/kg.
